Measurements reported in PMC5949348, “The Metabolism of Separase Inhibitor Sepin-1 in Human, Mouse, and Rat Liver Microsomes” (Frontiers in Pharmacology, 2018).

What was measured:
[1] = Metabolism of sepin-1 in HLM, MLM and RLM (metabolite profiling, UHPLC-QTOFMS); assay type: in vitro ADME, human, mouse, rat; conditions: 30 min; for Source (liver microsomes in which the metabolite was found): 30 μM sepin-1, 1.0 mg microsomes, NADPH 1.0 mM, 37°C; for Relative abundance of metabolite across HLM, MLM and RLM (in words): 30 μM sepin-1, NADPH 1.0 mM
Method: (§1) Incubations were conducted in 1× phosphate-buffered saline (1× PBS, pH 7.4), containing 30 μM sepin-1, 1.0 mg HLM, MLM, RLM, or 2 pmol of each cDNA-expressed P450 enzyme (control, CYP1A2, 2A6, 2B6, 2C8, 2C9, 2C19, 2D6, 2E1, and CYP3A4) in a final volume of 190 μl. After 5 min of pre-incubation at 37°C, the reaction was initiated by adding 10 μl of 20 mM NADPH (final concentration 1.0 mM) and continued for 30 min, with shaking at 37°C. Incubations lacking NADPH served as controls. Reactions were terminated with 200 μl of ice-cold methanol, followed by vortexing for 30 s and centrifuging at 15,000 × g for 15 min. Each supernatant was transferred to an auto sampler vial, and 5.0 μl was injected on to UHPLC coupled with a QTOFMS system for metabolite analysis. Incubations were conducted in quadruplicate for HLM, in triplicate for MLM and RLM, and in duplicate for cDNA-expressed P450 enzymes.
(§2) The separation of sepin-1 and its metabolites was achieved using a 1260 Infinity Binary LC System (Agilent Technologies, Santa Clara, CA, United States) equipped with 100 mm × 2.1 mm (Agilent XDB C18) column. The column temperature was maintained at 40°C. The flow rate was 0.3 ml/min, with a gradient ranging from 2% to 98% aqueous acetonitrile containing 0.1% formic acid in a 15-min run. QTOFMS was operated in a positive mode with electrospray ionization. Ultra-high pure nitrogen was applied as the drying gas (12 l/min) and the collision gas. The drying gas temperature was set at 325°C, and the nebulizer pressure was kept at 35 psi. The capillary voltages were set at 3.5 kV. During MS, real-time mass correction and accurate mass were achieved by continuously measuring standard reference ions at m/z 121.0508 and 922.0098 in the positive mode. The MS/MS of sepin-1 metabolites was performed in a targeted mode with a default isolation width of m/z 4 and collision energy ramp ranging from 10 to 45 V.
Mass chromatograms and mass spectra were acquired by MassHunter Workstation Data Acquisition Software (Agilent, Santa Clara, CA, United States) in centroid and profile formats from m/z 100 to 1000. The acquisition rate was set as 1.5 spectra per second. Centroid and integrated mass chromatographic data were processed by Mass Profinder and Mass Profiler Professional Software (Agilent, Santa Clara, CA, United States) to generate a multivariate data matrix. The corresponding data matrices were then exported into SIMCA13 (Umetrics, Kinnelon, NJ, United States) for multivariate data analysis. OPLS-DA was conducted on Pareto-scaled data. For the QQQMS data, QQQ Quantitative Analysis Software (Agilent, Santa Clara, CA, United States) was used for metabolite analysis. […] Statistical differences between two groups were determined by Student’s t-test.

[2] = Metabolism of sepin-1 in human liver microsomes; assay type: in vitro ADME; conditions: HLM, 30 μM sepin-1, with or without NADPH 1.0 mM
Method: as §1
as §2, with “During MS, real-time mass correction and accurate mass were achieved by continuously measuring standard reference ions at m/z 121.0508 and 922.0098 in the positive mode. The MS/MS of sepin-1 metabolites was performed in a targeted mode with a default isolation width of m/z 4 and collision energy ramp ranging from 10 to 45 V.” left out
Mass chromatograms and mass spectra were acquired by MassHunter Workstation Data Acquisition Software (Agilent, Santa Clara, CA, United States) in centroid and profile formats from m/z 100 to 1000. […] For the QQQMS data, QQQ Quantitative Analysis Software (Agilent, Santa Clara, CA, United States) was used for metabolite analysis. […] Statistical differences between two groups were determined by Student’s t-test.

[3] = Sepin-1 metabolism with cDNA-expressed P450 control; assay type: in vitro ADME, human; conditions: 30 μM sepin-1, control enzyme preparation, NADPH 1.0 mM, 30 min; unit not given, highest enzyme per metabolite = 100.0
Method: as §1
(§3) The separation of sepin-1 and its metabolites was achieved using a 1260 Infinity Binary LC System (Agilent Technologies, Santa Clara, CA, United States) equipped with 100 mm × 2.1 mm (Agilent XDB C18) column. The column temperature was maintained at 40°C. The flow rate was 0.3 ml/min, with a gradient ranging from 2% to 98% aqueous acetonitrile containing 0.1% formic acid in a 15-min run. QTOFMS was operated in a positive mode with electrospray ionization. […]

CYP1A2 = molecular target: T1, CYP1A2 (Homo sapiens, UniProt P05177); assay: Sepin-1 metabolism by recombinant CYP1A2; assay type: in vitro ADME; conditions: 30 μM sepin-1, 2 pmol cDNA-expressed enzyme, NADPH 1.0 mM, 30 min; unit not given, highest enzyme per metabolite = 100.0
T1 construct: purchased XenoTech
T1 sequence (P05177 1-516): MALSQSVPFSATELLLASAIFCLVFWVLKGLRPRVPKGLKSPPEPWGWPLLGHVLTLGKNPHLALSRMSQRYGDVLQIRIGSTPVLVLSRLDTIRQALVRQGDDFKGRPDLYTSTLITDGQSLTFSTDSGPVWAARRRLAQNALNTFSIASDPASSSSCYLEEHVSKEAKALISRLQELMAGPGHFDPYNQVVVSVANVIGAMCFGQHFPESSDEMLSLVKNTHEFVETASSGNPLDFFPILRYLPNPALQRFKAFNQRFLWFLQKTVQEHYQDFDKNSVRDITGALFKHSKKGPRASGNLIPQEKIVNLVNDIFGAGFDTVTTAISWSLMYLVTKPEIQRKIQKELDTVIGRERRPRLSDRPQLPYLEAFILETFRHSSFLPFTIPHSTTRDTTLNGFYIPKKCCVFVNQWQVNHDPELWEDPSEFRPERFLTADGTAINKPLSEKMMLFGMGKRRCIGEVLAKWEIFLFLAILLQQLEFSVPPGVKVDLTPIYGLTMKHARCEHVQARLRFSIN
Method: as §1, §3

CYP2A6 = test system: T2, CYP2A6; assay: Sepin-1 metabolism by recombinant CYP2A6; assay type: in vitro ADME, human; conditions: 30 μM sepin-1, 2 pmol cDNA-expressed enzyme, NADPH 1.0 mM, 30 min; unit not given, highest enzyme per metabolite = 100.0
T2 construct: purchased XenoTech
Method: as §1, §3

CYP2B6 = molecular target: T3, CYP2B6 (Homo sapiens, UniProt P20813); assay: Sepin-1 metabolism by recombinant CYP2B6; assay type: in vitro ADME; conditions: 30 μM sepin-1, 2 pmol cDNA-expressed enzyme, NADPH 1.0 mM, 30 min; unit not given, highest enzyme per metabolite = 100.0
T3 construct: purchased XenoTech
T3 sequence (P20813 1-491): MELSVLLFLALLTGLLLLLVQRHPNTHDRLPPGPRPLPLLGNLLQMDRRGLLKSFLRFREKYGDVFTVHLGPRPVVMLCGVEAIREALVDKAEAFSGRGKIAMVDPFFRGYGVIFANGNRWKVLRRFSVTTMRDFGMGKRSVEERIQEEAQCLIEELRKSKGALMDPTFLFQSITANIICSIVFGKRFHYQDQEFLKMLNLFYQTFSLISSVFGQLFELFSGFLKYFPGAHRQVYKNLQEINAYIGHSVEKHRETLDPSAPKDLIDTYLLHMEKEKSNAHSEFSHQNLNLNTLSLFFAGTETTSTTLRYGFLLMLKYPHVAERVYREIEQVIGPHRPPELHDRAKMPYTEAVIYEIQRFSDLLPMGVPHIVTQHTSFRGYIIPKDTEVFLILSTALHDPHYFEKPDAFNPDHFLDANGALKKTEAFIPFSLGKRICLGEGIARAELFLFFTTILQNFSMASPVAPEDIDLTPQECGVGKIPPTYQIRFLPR
Method: as §1, §3

CYP2C8 = molecular target: T4, CYP2C8 (Homo sapiens, UniProt P10632); assay: Sepin-1 metabolism by recombinant CYP2C8; assay type: in vitro ADME; conditions: 30 μM sepin-1, 2 pmol cDNA-expressed enzyme, NADPH 1.0 mM, 30 min; unit not given, highest enzyme per metabolite = 100.0
T4 construct: purchased XenoTech
T4 sequence (P10632 1-490): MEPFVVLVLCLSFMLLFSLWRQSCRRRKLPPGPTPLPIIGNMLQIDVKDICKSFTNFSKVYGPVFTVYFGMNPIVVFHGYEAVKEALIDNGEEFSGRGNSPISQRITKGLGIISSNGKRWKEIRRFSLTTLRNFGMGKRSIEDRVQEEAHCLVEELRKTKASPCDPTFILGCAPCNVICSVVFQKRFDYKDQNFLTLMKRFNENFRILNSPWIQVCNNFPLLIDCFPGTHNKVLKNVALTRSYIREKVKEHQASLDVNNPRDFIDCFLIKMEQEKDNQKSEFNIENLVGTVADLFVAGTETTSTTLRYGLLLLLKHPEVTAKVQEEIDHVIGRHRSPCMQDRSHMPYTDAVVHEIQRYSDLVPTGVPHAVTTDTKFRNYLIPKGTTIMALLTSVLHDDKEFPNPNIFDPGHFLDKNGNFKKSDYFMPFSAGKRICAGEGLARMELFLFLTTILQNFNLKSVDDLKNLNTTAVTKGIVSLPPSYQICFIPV
Method: as §1, §3

CYP2C9 = molecular target: T5, CYP2C9 (Homo sapiens, UniProt P11712); assay: Sepin-1 metabolism by recombinant CYP2C9; assay type: in vitro ADME; conditions: 30 μM sepin-1, 2 pmol cDNA-expressed enzyme, NADPH 1.0 mM, 30 min; unit not given, highest enzyme per metabolite = 100.0
T5 construct: purchased XenoTech
Method: as §1, §3

CYP2C19 = molecular target: T6, CYP2C19 (Homo sapiens, UniProt P33261); assay: Sepin-1 metabolism by recombinant CYP2C19; assay type: in vitro ADME; conditions: 30 μM sepin-1, 2 pmol cDNA-expressed enzyme, NADPH 1.0 mM, 30 min; unit not given, highest enzyme per metabolite = 100.0
T6 construct: purchased XenoTech
Method: as §1, §3

CYP2D6 = molecular target: T7, CYP2D6 (Homo sapiens, UniProt P10635); assay: Sepin-1 metabolism by recombinant CYP2D6; assay type: in vitro ADME; conditions: 30 μM sepin-1, 2 pmol cDNA-expressed enzyme, NADPH 1.0 mM, 30 min; unit not given, highest enzyme per metabolite = 100.0
T7 construct: purchased XenoTech
Method: as §1, §3

CYP2E1 = test system: T8, CYP2E1; assay: Sepin-1 metabolism by recombinant CYP2E1; assay type: in vitro ADME, human; conditions: 30 μM sepin-1, 2 pmol cDNA-expressed enzyme, NADPH 1.0 mM, 30 min; unit not given, highest enzyme per metabolite = 100.0
T8 construct: purchased XenoTech
Method: as §1, §3

CYP3A4 = molecular target: T9, CYP3A4 (Homo sapiens, UniProt P08684); assay: Sepin-1 metabolism by recombinant CYP3A4; assay type: in vitro ADME; conditions: 30 μM sepin-1, 2 pmol cDNA-expressed enzyme, NADPH 1.0 mM, 30 min; unit not given, highest enzyme per metabolite = 100.0
T9 construct: purchased XenoTech
Method: as §1, §3

T6 sequence (P33261 whole entry): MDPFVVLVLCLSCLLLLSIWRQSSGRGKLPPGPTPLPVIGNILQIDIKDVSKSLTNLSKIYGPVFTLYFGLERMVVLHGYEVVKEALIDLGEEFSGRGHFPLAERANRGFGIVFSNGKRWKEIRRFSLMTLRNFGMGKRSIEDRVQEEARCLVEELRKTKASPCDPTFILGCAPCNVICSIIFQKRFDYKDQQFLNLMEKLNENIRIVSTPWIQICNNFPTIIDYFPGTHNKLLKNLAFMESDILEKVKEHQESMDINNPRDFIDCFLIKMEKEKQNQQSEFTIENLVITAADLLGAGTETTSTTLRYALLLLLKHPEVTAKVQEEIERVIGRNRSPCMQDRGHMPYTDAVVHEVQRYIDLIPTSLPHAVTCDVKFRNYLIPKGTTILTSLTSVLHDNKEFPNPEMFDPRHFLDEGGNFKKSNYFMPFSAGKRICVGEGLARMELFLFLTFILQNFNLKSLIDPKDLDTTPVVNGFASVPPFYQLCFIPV
T7 sequence (P10635 whole entry): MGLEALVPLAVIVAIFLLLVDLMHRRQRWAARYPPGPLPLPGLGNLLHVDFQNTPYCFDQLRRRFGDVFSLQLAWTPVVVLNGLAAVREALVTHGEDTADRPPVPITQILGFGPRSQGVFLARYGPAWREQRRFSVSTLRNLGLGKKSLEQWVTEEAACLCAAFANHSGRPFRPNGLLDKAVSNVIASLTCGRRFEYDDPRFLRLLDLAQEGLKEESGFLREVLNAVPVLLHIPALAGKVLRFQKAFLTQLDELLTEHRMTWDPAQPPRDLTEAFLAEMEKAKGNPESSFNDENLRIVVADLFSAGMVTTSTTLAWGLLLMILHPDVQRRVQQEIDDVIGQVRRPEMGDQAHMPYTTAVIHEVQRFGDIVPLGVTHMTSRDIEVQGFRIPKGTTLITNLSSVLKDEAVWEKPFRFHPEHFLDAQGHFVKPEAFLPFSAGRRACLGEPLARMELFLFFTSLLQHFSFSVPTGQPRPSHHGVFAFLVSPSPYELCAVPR
T9 sequence (P08684 whole entry): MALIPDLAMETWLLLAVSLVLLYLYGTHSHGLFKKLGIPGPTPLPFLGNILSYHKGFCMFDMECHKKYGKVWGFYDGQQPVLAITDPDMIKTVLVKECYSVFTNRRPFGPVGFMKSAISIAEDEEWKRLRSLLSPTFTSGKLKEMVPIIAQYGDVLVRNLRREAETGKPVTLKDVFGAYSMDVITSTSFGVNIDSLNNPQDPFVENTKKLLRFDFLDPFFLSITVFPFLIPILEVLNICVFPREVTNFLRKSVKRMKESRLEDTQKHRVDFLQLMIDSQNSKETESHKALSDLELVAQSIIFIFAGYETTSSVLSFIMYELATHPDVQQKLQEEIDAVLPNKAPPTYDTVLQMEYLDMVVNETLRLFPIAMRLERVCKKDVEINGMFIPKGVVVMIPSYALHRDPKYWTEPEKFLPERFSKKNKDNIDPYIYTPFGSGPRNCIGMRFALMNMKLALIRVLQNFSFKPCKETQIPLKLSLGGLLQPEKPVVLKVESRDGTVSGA
T5 sequence (P11712 whole entry): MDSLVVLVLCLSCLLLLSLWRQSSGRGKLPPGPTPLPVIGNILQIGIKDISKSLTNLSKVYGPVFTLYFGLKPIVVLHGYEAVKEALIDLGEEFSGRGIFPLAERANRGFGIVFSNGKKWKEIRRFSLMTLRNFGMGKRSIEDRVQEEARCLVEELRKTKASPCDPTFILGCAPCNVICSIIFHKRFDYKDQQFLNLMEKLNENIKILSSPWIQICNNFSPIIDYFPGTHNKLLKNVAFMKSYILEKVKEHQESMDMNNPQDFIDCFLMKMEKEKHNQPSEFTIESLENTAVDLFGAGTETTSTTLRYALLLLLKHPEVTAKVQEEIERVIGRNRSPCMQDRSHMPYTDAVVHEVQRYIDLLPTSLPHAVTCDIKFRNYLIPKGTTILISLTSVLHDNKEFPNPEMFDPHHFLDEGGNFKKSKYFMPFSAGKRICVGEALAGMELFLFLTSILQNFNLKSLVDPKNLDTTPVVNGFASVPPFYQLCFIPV

Structure (SMILES)	Source (liver microsomes in which the metabolite was found) [1]	Relative abundance of metabolite across HLM, MLM and RLM (in words) [1]	NADPH dependence of metabolite formation [2]	Formation of metabolite, Control (Role of P450s in the metabolism of sepin-1) [3]	Formation of metabolite by CYP1A2 (Role of P450s in the metabolism of sepin-1) (CYP1A2)	Formation of metabolite by CYP2A6 (Role of P450s in the metabolism of sepin-1) (CYP2A6)	Formation of metabolite by CYP2B6 (Role of P450s in the metabolism of sepin-1) (CYP2B6)	Formation of metabolite by CYP2C8 (Role of P450s in the metabolism of sepin-1) (CYP2C8)	Formation of metabolite by CYP2C9 (Role of P450s in the metabolism of sepin-1) (CYP2C9)	Formation of metabolite by CYP2C19 (Role of P450s in the metabolism of sepin-1) (CYP2C19)	Formation of metabolite by CYP2D6 (Role of P450s in the metabolism of sepin-1) (CYP2D6)	Formation of metabolite by CYP2E1 (Role of P450s in the metabolism of sepin-1) (CYP2E1)	Formation of metabolite by CYP3A4 (Role of P450s in the metabolism of sepin-1) (CYP3A4)
CC1(C)Nc2ccc([N+](=O)[O-])cc2N1 [M1]	HLM, MLM, RLM	dominant metabolites in all the three species	NADPH dependent	79.5	86.3	90.8	91.9	91.3	90.4	90.8	96.9	89.9	100.0
CC1(C)[N+]([O-])=c2ccc(N)cc2=[N+]1[O-] [M2]	HLM, MLM, RLM	dominant metabolites in all the three species	NADPH dependent	41.5	50.5	76.1	85.9	63.6	57.2	67.5	100.0	53.2	95.3
